Measured values taken from patent publication US20120183524A1, “MOLECULAR TARGETS FOR TREATMENT OF INFLAMMATION” (University Of Rochester, priority 2007, published 2012).
Non-standard residues stand in square brackets, D forms with d. Residues, ends and D or L forms follow the SMILES beside them. Nle = CCCC[C@H](N)C(=O)O

System: RelB
Assay: RelB, IKKα, NIK and RelA/p65 levels by western blotting in CSE-treated Ramos B-cells
Type: cell-based, human
Settings: B-cells pretreated with ALLN 25 μM for 20 min, then CSE 0.5% and 1.0% for 1 h; whole cell lysates, immunoblotting
Method: MonoMac6-, Ramos B- and WEHI-231-cells were seeded at a density of less than 1×10^6 cells/well (total final volume=2 ml), grown to ˜80-90% confluency in six-well plates containing RPMI 1640 medium with 10% FBS, washed in Ca2+- and Mg2+-free PBS, and then exposed to various treatments in media containing 1% serum. All treatments were performed in duplicate. The cells were treated with CSE (0.5, 1.0 and 5%) for 1 h at 37° C. with 7.5% CO2. At the end of treatment, the cells were washed with cold, sterile Ca2+- and Mg2+-free PBS and were lysed in RIPA buffer as whole lysate (western blotting), and the lysates stored at −80° C. […]
Lung tissue homogenate samples (cytoplasmic and nuclear proteins) were separated on a 7.5%-12% SDS-PAGE. […] The next day, membranes were washed and incubated for 1 h at room temperature with the appropriate secondary antibody linked to horseradish peroxidase (Dako, Santa Barbara, Calif.), bound complexes were detected with the use of the enhanced chemiluminescence method (Jackson Immunology Research, West Grove, Pa.).

CCCC[C@@H](C=O)NC(=O)[C@H](CC(C)C)NC(=O)[C@H](CC(C)C)NC(C)=O [ALLN] (Ac-Leu-Leu-[Nle]-aldehyde) was tested, and the “degradation of RelB in response to CSE” value was “prevented the degradation of RelB”.
